Reference: patent US20240158430A1, “NOVEL COMPOUND OR SALT THEREOF, AND ANTITUMOR ACTIVATOR CONTAINING SAME AS ACTIVE INGREDIENT” (AKITA UNIVERSITY, priority 2021, published 2024)
pIC50: −log10 of the molar value.

Assays:
[1] = test system: vascular endothelial cells HUVEC-R resistant to Ki8751; test: Angiogenesis inhibitory activity, HUVEC-R; assay type: cell-based; settings: Table 11; number of cells after 72 hours
Description: HUVEC-R was cultured in the presence of each compound using an EGMTM-2 Bullet Kit (Takara Bio Inc., Otsu, Japan), and the number of cells was measured after 72 hours. In addition, IC50 was determined from the results.

[2] = test system: breast cancer cell line HCC70; test: Cell growth inhibitory activity, HCC70; assay type: cell-based
Description: [The source words this procedure for another cell line and reports this cell line under the same test.] (§1) The cell growth inhibitory activity against a colorectal cancer cell line HCT116 was measured. As an index of cell growth inhibitory activity, a concentration at which cell growth was inhibited by 50% as compared with a control (IC50) was used. The method is as follows. HCT116 was added to a 6-well plate by 5×10^4, compounds having various concentrations were added after 24 hours, and the number of cells was counted after 72 hours of culture. As the control, DMSO was used in an amount equal to the amount added in accordance with the addition concentration of the highest-concentration compound. The number of cells at each concentration relative to the control was expressed as a percentage.
(§2) The method is as described above.

[3] = test system: malignant melanoma cell line G361; test: Cell growth inhibitory activity, G361; assay type: cell-based; settings: Table 9
Description: [The source words this procedure for another cell line and reports this cell line under the same test.] as §1, §2

β-catenin = test: Influence on β-catenin, ELISA; assay type: cell-based; settings: control 11.5±2.3
Description: (§3) The influence of GO-Y199 on NF-kB (p65) was investigated. The method is as follows. 3×10^6 cells of the HCT116 cell line were added to a 10-cm plate, 2 μM of GO-Y199 was added after 24 hours, the cells were collected after 24 hours, embedded in iPGell (GenOStaff), and fixed in formalin, paraffin blocks were then prepared, and immuno-histochemistry was performed with an anti-NF-kB (p65) antibody. In addition, 2 μM and 5 μM of GO-Y199 were added, lysates were collected after 24 hours, and an expression level of NF-kB (p65) was analyzed using an ELISA-plate (NF-kBp65 (pS536) SimpleStep-ELISA-kit, Abcam). An amount of protein was corrected by the absorbance of A 280 nm. The upper part of FIG. 14 indicates photographs of the control group and the GO-Y199 (2 μM)-added group after 24 hours. The lower part of FIG. 14 indicates results of the t-test of these groups after 24 hours. FIG. 15 indicates the comparison results of the NF-kB inhibitory effect of GO-Y199 (2 μM, 5 μM)-added groups with respect to the control group.
The influence of GO-Y199 on β-catenin was investigated. The method is as described above. Immunohistochemistry was performed with an anti-β-catenin antibody. Protein quantification was performed using an ELISA plate (proteintech). FIG. 17 indicates photographs of the control group and the GO-Y199 (2 μM)-added group after 24 hours. […]

[4] = test system: malignant pleural mesothelioma cell line MSTO211H; test: Cell growth inhibitory activity, MSTO211H; assay type: cell-based; settings: Table 8
Description: as §1, with “percentage. In Table 3, the turbidities of the compounds are also indicated.” for “percentage.”
GO-Y198, GO-Y199, and GO-Y200 against malignant pleural mesothelioma cell lines NCI-H226 and MSTO211H was measured. The method is as described above. For comparison, the IC50 of cisplatin (CDDP), a cytocidal anticancer agent, is also indicated.

HCT116 = test: Cytocidal effect, HCT116; assay type: cell-based; settings: 2 μM and 5 μM, cells counted after 48 and 72 hours
Description: The method is as follows. Each cell line was added to 6-well plate by 5×10^4, 2 μM and 5 μM of GO-Y199 were added after 24 hours, and the number of cells was counted after 48 hours and 72 hours.

NF-kB (p65) = test: Influence on NF-kB, immunohistochemistry in HCT116; assay type: cell-based; settings: 2 μM, 24 hours, control 96.8±1.1%
Description: as §3

Caspase 3 = test: Influence on Caspase 3, immunohistochemistry; assay type: cell-based; settings: 2 μM; 24 hours; control 1.0±0.1%
Description: as §3
(§4) The influence of GO-Y199 on Caspase 3 was investigated. The method is as described above. Immunohistochemistry was performed with an anti-Caspase 3 antibody. Quantification of apoptosis-related protein was performed using M30 Apotosense ELISA (PEVIVA). The upper part of FIG. 20 indicates photographs of the control group and the GO-Y199 (2 μM)-added group after 24 hours. […]

MSTO-211H cells = test: Antitumor effect on malignant mesothelioma cells, animal model; assay type: in vivo, nude mice
Description: An animal model was used to investigate the antitumor effect of GO-Y199 on malignant mesothelioma cells. The method is as follows. 2.8×10^6 MSTO-211H cells were intraperitoneally transplanted into each of 5 nude mice. From Day 5, 43 μL of 100 mM GO-Y199 in DMSO was diluted to 500 μL with PBS and intraperitoneally administered to the mice (equivalent to 5 mg of GO-Y199). As a control group, a DMSO-PBS solution having the equivalent concentration was intraperitoneally administered to each of four nude mice to which MSTO-211H cells were intraperitoneally transplanted in the same manner. The administration was performed 5 times in total at intervals of 5 days. After 30 days, the mice were sacrificed, necropsied, and analyzed.

[5] = test system: apoptosis-related protein; test: Apoptosis-related protein, M30 Apotosense ELISA; assay type: cell-based; settings: control 360 U/L
Description: as §3, §4

For `COCOc1cc(/C=C/C(=O)CC(SCCOCCOCCOCCOCc2cn([C@@H]3O[C@H](CO)[C@@H](O[C@@H]4O[C@H](CO)[C@H](O)[C@H](O)[C@H]4O)[C@H](O)[C@H]3O)nn2)c2cc(OCOC)cc(OCOC)c2)cc(OCOC)c1` (some centres unmarked) [GO-Y199], the IC50 [1] was 0.96 µM, the pIC50 ([2]; Table 4, 72 hours) was 6.27 and the “GO-Y199 vs GO-Y030 (IC50 comparison), HCC70” value ([2]; Table 5, ratio of IC50) was 0.24. The IC50 [3] was 1.4 µM, the “relative expression level of β-catenin” value (β-catenin; 2 μM) was 2.8±0.8 and the “relative expression level of β-catenin” value (β-catenin; 5 μM) was 3.9±1.1. For the same compound, the IC50 [4] was 2.4 µM, the cytocidal effect (HCT116) was “cytocidal effect” and the “proportion of cells expressing NF-kB (p65)” value (NF-kB (p65)) was 69.4±12.4%. The “proportion of Caspase 3-expressing cells” value (Caspase 3) was 57.4±2.6%, the “animals with microscopic peritoneal disseminated lesions” value (MSTO-211H cells; 5 mg i.p., 5 times at intervals of 5 days, after 30 days, control 75%) was 80% and the “size (maximum diameter) of disseminated nodule” value (MSTO-211H cells; 5 mg i.p., 5 times, after 30 days, control 6 to 13 mm) was 5 mm. For the same compound, the “animals with disseminated nodule of maximum diameter exceeding 5 mm” value (MSTO-211H cells; 5 mg i.p., 5 times, after 30 days, control 100%) was 20%, the “pathologic analysis, inside of the disseminated nodule” value (MSTO-211H cells; control filled with tumor cells) was “necrotic” and the “tumor formation at the puncture site” value (MSTO-211H cells; not observed in control group) was “one animal”. The “apoptosis-related protein activity (M30)” value ([5]; 2 μM) was 1,830 U/L and the “apoptosis-related protein activity (M30)” value ([5]; 5 μM) was 2,050 U/L.
